pIC50: −log10 of the molar value.
System: LG0703-F948-PDC complex spheroid viability
Assay: Anticancer human tumor LG0703-F948-PDC patient-derived lung adenocarcinoma cell line growth inhibition
Settings: for pIC50: curve of first compound; for viability, T/C: stronger effect = lower value
Outline: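 Multicellular complex spheroids of tumor cells with human endothelial cells (HUVEC) and mesenchymal stem cells; the LSD1 inhibitor iadademstat was combined with standard-of-care or investigational agents. Top concentration at or near clinical Cmax, half-log dilutions; final DMSO ≤0.25%.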

[1] = second compound 0.1 µM, first compound 0.0316 µM
[2] = second compound 0.1 µM, first compound 0.1 µM
[3] = second compound 0.316 µM, first compound 0.0316 µM
[4] = second compound 0.316 µM, first compound 0.1 µM
[5] = second compound 1 µM, first compound 0.0316 µM
[6] = second compound 1 µM, first compound 0.1 µM
[7] = second compound 3.16 µM, first compound 0.0316 µM
[8] = second compound 3.16 µM, first compound 0.1 µM
[9] = second compound 10 µM, first compound 0.0316 µM
[10] = second compound 10 µM, first compound 0.1 µM
[11] = second compound 0.1 µM, first compound 0.000949 µM
[12] = second compound 0.1 µM, first compound 0.003 µM
[13] = second compound 0.1 µM, first compound 0.00949 µM
[14] = second compound 0.1 µM, first compound 0.03 µM
[15] = second compound 0.1 µM, first compound 0.0949 µM
[16] = second compound 0.1 µM, first compound 0.3 µM
[17] = second compound 0.316 µM, first compound 0.000949 µM
[18] = second compound 0.316 µM, first compound 0.003 µM
[19] = second compound 0.316 µM, first compound 0.00949 µM
[20] = second compound 0.316 µM, first compound 0.03 µM
[21] = second compound 0.316 µM, first compound 0.0949 µM
[22] = second compound 0.316 µM, first compound 0.3 µM
[23] = second compound 1 µM, first compound 0.000949 µM
[24] = second compound 1 µM, first compound 0.003 µM
[25] = second compound 1 µM, first compound 0.00949 µM
[26] = second compound 1 µM, first compound 0.03 µM
[27] = second compound 1 µM, first compound 0.0949 µM
[28] = second compound 1 µM, first compound 0.3 µM
[29] = second compound 3.16 µM, first compound 0.000949 µM
[30] = second compound 3.16 µM, first compound 0.003 µM
[31] = second compound 3.16 µM, first compound 0.00949 µM
[32] = second compound 3.16 µM, first compound 0.03 µM
[33] = second compound 3.16 µM, first compound 0.0949 µM
[34] = second compound 3.16 µM, first compound 0.3 µM
[35] = second compound 10 µM, first compound 0.000949 µM
[36] = second compound 10 µM, first compound 0.003 µM
[37] = second compound 10 µM, first compound 0.00949 µM
[38] = second compound 10 µM, first compound 0.03 µM
[39] = second compound 10 µM, first compound 0.0949 µM
[40] = second compound 10 µM, first compound 0.3 µM
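Further: spheroids exposed to agents for seven days before readout.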
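Wherever viability, T/C is given: 100% = DMSO vehicle control wells as normalization base.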

SMILES: CC[C@@]1(O)C(=O)OCc2c1cc1n(c2=O)Cc2cc3c(CN(C)C)c(O)ccc3nc2-1 + NC1CCC(NC2CC2c2ccccc2)CC1
- pIC50 (second compound 0.1 µM): < 7.00
- pIC50 (second compound 0.316 µM): < 7.00
- pIC50 (second compound 1 µM): < 7.00
- pIC50 (second compound 3.16 µM): < 7.00
- pIC50 (second compound 10 µM): < 7.00
- viability, T/C (second compound 0.1 µM, first compound 0.000316 µM): 103%
- viability, T/C (second compound 0.1 µM, first compound 0.001 µM): 129%
- viability, T/C (second compound 0.1 µM, first compound 0.00316 µM): 110%
- viability, T/C (second compound 0.1 µM, first compound 0.01 µM): 87.4%
- viability, T/C [1]: 64.8%
- viability, T/C [2]: 52.8%
- viability, T/C (second compound 0.316 µM, first compound 0.000316 µM): 117%
- viability, T/C (second compound 0.316 µM, first compound 0.001 µM): 111%
- viability, T/C (second compound 0.316 µM, first compound 0.00316 µM): 104%
- viability, T/C (second compound 0.316 µM, first compound 0.01 µM): 95.8%
- viability, T/C [3]: 78.2%
- viability, T/C [4]: 63%
- viability, T/C (second compound 1 µM, first compound 0.000316 µM): 128%
- viability, T/C (second compound 1 µM, first compound 0.001 µM): 132%
- viability, T/C (second compound 1 µM, first compound 0.00316 µM): 122%
- viability, T/C (second compound 1 µM, first compound 0.01 µM): 101%
- viability, T/C [5]: 77.7%
- viability, T/C [6]: 61.9%
- viability, T/C (second compound 3.16 µM, first compound 0.000316 µM): 110%
- viability, T/C (second compound 3.16 µM, first compound 0.001 µM): 134%
- viability, T/C (second compound 3.16 µM, first compound 0.00316 µM): 117%
- viability, T/C (second compound 3.16 µM, first compound 0.01 µM): 101%
- viability, T/C [7]: 98.4%
- viability, T/C [8]: 69.6%
- viability, T/C (second compound 10 µM, first compound 0.000316 µM): 130%
- viability, T/C (second compound 10 µM, first compound 0.001 µM): 123%
- viability, T/C (second compound 10 µM, first compound 0.00316 µM): 115%
- viability, T/C (second compound 10 µM, first compound 0.01 µM): 96.6%
- viability, T/C [9]: 96.8%
- viability, T/C [10]: 84.5%

SMILES: CCc1c2c(nc3ccc(O)cc13)-c1cc3c(c(=O)n1C2)COC(=O)[C@]3(O)CC + NC1CCC(NC2CC2c2ccccc2)CC1
- pIC50 (second compound 0.1 µM): 8.88
- pIC50 (second compound 0.316 µM): 8.73
- pIC50 (second compound 1 µM): 8.72
- pIC50 (second compound 3.16 µM): 8.44
- pIC50 (second compound 10 µM): 8.29
- viability, T/C [11]: 55.8%
- viability, T/C [12]: 36.4%
- viability, T/C [13]: 23.9%
- viability, T/C [14]: 15%
- viability, T/C [15]: 8.81%
- viability, T/C [16]: 4.02%
- viability, T/C [17]: 63.7%
- viability, T/C [18]: 40.2%
- viability, T/C [19]: 24.8%
- viability, T/C [20]: 15.1%
- viability, T/C [21]: 7.91%
- viability, T/C [22]: 3.79%
- viability, T/C [23]: 62.8%
- viability, T/C [24]: 40.8%
- viability, T/C [25]: 27.6%
- viability, T/C [26]: 15.9%
- viability, T/C [27]: 7.93%
- viability, T/C [28]: 3.95%
- viability, T/C [29]: 64.8%
- viability, T/C [30]: 52.5%
- viability, T/C [31]: 35.3%
- viability, T/C [32]: 18.1%
- viability, T/C [33]: 7.91%
- viability, T/C [34]: 4.52%
- viability, T/C [35]: 78.8%
- viability, T/C [36]: 59%
- viability, T/C [37]: 39.6%
- viability, T/C [38]: 19.9%
- viability, T/C [39]: 8.18%
- viability, T/C [40]: 3.7%

SMILES: Nc1ccccc1NC(=O)c1ccc(CNC(=O)OCc2cccnc2)cc1 + NC1CCC(NC2CC2c2ccccc2)CC1
- pIC50 (second compound 0.1 µM): 6.93
- pIC50 (second compound 0.316 µM): 6.85
- pIC50 (second compound 1 µM): 6.90
- pIC50 (second compound 3.16 µM): 6.85
- pIC50 (second compound 10 µM): 6.86
- viability, T/C [13]: 110%
- viability, T/C [14]: 99.9%
- viability, T/C [15]: 58.8%
- viability, T/C [16]: 12.6%
- viability, T/C (second compound 0.1 µM, first compound 0.949 µM): 1.17%
- viability, T/C (second compound 0.1 µM, first compound 3 µM): 0.33%
- viability, T/C [19]: 105%
- viability, T/C [20]: 93.8%
- viability, T/C [21]: 70.2%
- viability, T/C [22]: 14.2%
- viability, T/C (second compound 0.316 µM, first compound 0.949 µM): 1.51%
- viability, T/C (second compound 0.316 µM, first compound 3 µM): 0.96%
- viability, T/C [25]: 87.7%
- viability, T/C [26]: 94.8%
- viability, T/C [27]: 59.4%
- viability, T/C [28]: 17%
- viability, T/C (second compound 1 µM, first compound 0.949 µM): 1.08%
- viability, T/C (second compound 1 µM, first compound 3 µM): 0.48%
- viability, T/C [31]: 112%
- viability, T/C [32]: 109%
- viability, T/C [33]: 68.9%
- viability, T/C [34]: 13.5%
- viability, T/C (second compound 3.16 µM, first compound 0.949 µM): 0.24%
- viability, T/C (second compound 3.16 µM, first compound 3 µM): 0.24%
- viability, T/C [37]: 94.7%
- viability, T/C [38]: 85.2%
- viability, T/C [39]: 67.2%
- viability, T/C [40]: 17%
- viability, T/C (second compound 10 µM, first compound 0.949 µM): 0.59%
- viability, T/C (second compound 10 µM, first compound 3 µM): 0.92%

SMILES: Nc1ccn(C2OC(CO)C(O)C2(F)F)c(=O)n1 (stereo not given) + NC1CCC(NC2CC2c2ccccc2)CC1
- pIC50 (second compound 0.1 µM): 8.47
- pIC50 (second compound 0.316 µM): 8.36
- pIC50 (second compound 1 µM): 7.82
- pIC50 (second compound 3.16 µM): 7.61
- pIC50 (second compound 10 µM): 7.71
- viability, T/C [11]: 68.9%
- viability, T/C [12]: 50.5%
- viability, T/C [13]: 41.8%
- viability, T/C [14]: 44%
- viability, T/C [15]: 39.1%
- viability, T/C [16]: 36.8%
- viability, T/C [17]: 67.5%
- viability, T/C [18]: 52.3%
- viability, T/C [19]: 45.3%
- viability, T/C [20]: 41.1%
- viability, T/C [21]: 44.2%
- viability, T/C [22]: 38.6%
- viability, T/C [23]: 74.6%
- viability, T/C [24]: 56.1%
- viability, T/C [25]: 55%
- viability, T/C [26]: 46.4%
- viability, T/C [27]: 48.1%
- viability, T/C [28]: 37.2%
- viability, T/C [29]: 86.8%
- viability, T/C [30]: 65.8%
- viability, T/C [31]: 54.1%
- viability, T/C [32]: 51.5%
- viability, T/C [33]: 45.1%
- viability, T/C [34]: 43.6%
- viability, T/C [35]: 83.1%
- viability, T/C [36]: 56.8%
- viability, T/C [37]: 56.8%
- viability, T/C [38]: 49%
- viability, T/C [39]: 51.1%
- viability, T/C [40]: 42.2%

SMILES: O=C(c1cc(Cc2n[nH]c(=O)c3ccccc23)ccc1F)N1CCN(C(=O)C2CC2)CC1 + NC1CCC(NC2CC2c2ccccc2)CC1
- pIC50 (second compound 0.1 µM): < 5.00
- pIC50 (second compound 0.316 µM): < 5.00
- pIC50 (second compound 1 µM): < 5.00
- pIC50 (second compound 3.16 µM): < 5.00
- pIC50 (second compound 10 µM): < 5.00
- viability, T/C [1]: 101%
- viability, T/C [2]: 100%
- viability, T/C (second compound 0.1 µM, first compound 0.316 µM): 91.5%
- viability, T/C (second compound 0.1 µM, first compound 1 µM): 99.4%
- viability, T/C (second compound 0.1 µM, first compound 3.16 µM): 80.9%
- viability, T/C (second compound 0.1 µM, first compound 10 µM): 76.8%
- viability, T/C [3]: 112%
- viability, T/C [4]: 117%
- viability, T/C (second compound 0.316 µM, first compound 0.316 µM): 106%
- viability, T/C (second compound 0.316 µM, first compound 1 µM): 89.4%
- viability, T/C (second compound 0.316 µM, first compound 3.16 µM): 94.3%
- viability, T/C (second compound 0.316 µM, first compound 10 µM): 84%
- viability, T/C [5]: 121%
- viability, T/C [6]: 125%
- viability, T/C (second compound 1 µM, first compound 0.316 µM): 123%
- viability, T/C (second compound 1 µM, first compound 1 µM): 130%
- viability, T/C (second compound 1 µM, first compound 3.16 µM): 95.3%
- viability, T/C (second compound 1 µM, first compound 10 µM): 98.2%
- viability, T/C [7]: 116%
- viability, T/C [8]: 110%
- viability, T/C (second compound 3.16 µM, first compound 0.316 µM): 113%
- viability, T/C (second compound 3.16 µM, first compound 1 µM): 107%
- viability, T/C (second compound 3.16 µM, first compound 3.16 µM): 112%
- viability, T/C (second compound 3.16 µM, first compound 10 µM): 106%
- viability, T/C [9]: 109%
- viability, T/C [10]: 106%
- viability, T/C (second compound 10 µM, first compound 0.316 µM): 103%
- viability, T/C (second compound 10 µM, first compound 1 µM): 109%
- viability, T/C (second compound 10 µM, first compound 3.16 µM): 94%
- viability, T/C (second compound 10 µM, first compound 10 µM): 84%

From PubChem BioAssay AID1918952 (Molecular Pharmacology Branch, DTP, NCI, 2023)
